{"source": "patent US20120129189A1", "about": "“Methods of Controlling Cell Proliferation” (priority 2009, published 2012)", "key": {"[1]": {"tested_on": "active β-Catenin in ESCs", "assay": "Western analysis of active β-Catenin in ESCs", "type": "cell-based", "quoted_text": "Gapdh antibody was used as a loading control. h, head; ht, heart tube; Con, control; N1 KD, Notch1 siRNA; N1-4 KD, Notch 1-4 siRNA."}, "[2]": {"tested_on": "SW480 cells", "assay": "Relative number of SW480 cells (cell expansion)", "type": "cell-based, human", "details": "SW480 (FIG. 5D), DAPT 50 or 100 μM, 72 h; text names SW480 and HT-29", "description": "FIGS. 5A-I. γ-Secretase Inhibitors (GSIs) Suppress Expansion of Human Colon Cancer Cells by Blocking Notch Cleavage (A) Western analysis of active β-Catenin in SW480 colon cancer cells transfected with control or siRNA against Notch1-4 (100 nM each). (B) Relative β-Catenin/TCF activity of SW480 cells treated with increasing doses of DAPT for 96 h. (C) Western analysis of β-Catenin levels in SW480 and a second colon cancer cell line, HT-29, treated with increasing doses (0, 25, 50 or 100 μM) of DAPT for 96 h. (D) Relative number of SW480 cells treated with DAPT (50 or 100 μM) for 72 h. (E) Western analysis of active β-Catenin levels in SW480 cells with increasing DAPT in the presence or absence of proteasome inhibitor (PI) MG-132 (5 nM) for 72 h. […] (F) Notch/RBP-J activity of SW480 cells treated with increasing doses of Ibuprofen. Notch/RBP-J activity was measured by transfecting cells with a luciferase reporter downstream of multiple RBP-J sites. (G) Relative β-Catenin/TCF activity of SW480 cells treated with Ibuprofen for 72 h. (H) Western analysis of active β-Catenin in SW480 cells treated with Ibuprofen for 72 h. (I) Western analysis of active β-Catenin in SW480 cells transfected with Notch1-4 (100 nM each) siRNA and treated with or without ibuprofen. Gapdh antibody was used as a loading control. All luciferase values were normalized to Renilla activity and represent n=4. *, P<0.01. […]"}, "[3]": {"tested_on": "β-Catenin in HT-29 cells", "assay": "Western analysis of β-Catenin in HT-29 cells", "type": "cell-based, human", "details": "HT-29, DAPT 0, 25, 50 or 100 μM, 96 h", "description": "(§1) Cells were scraped off the 100-mm dish and lysed in 1 ml of lysis buffer (1 mM PMSF, 1 mM EDTA, 10 mM Tris-HCl, 0.1% Triton X100, 1× Complete Protease Inhibitor Cocktail (Roche) in PBS). The lysates were spun down, and 1 μg of anti-c-Myc antibody (Sigma, M4439) or anti-Flag antibody (Sigma, F1804) was added to 500 μl of the supernatant. A 50-50 mixture of protein A Sepharose (Amersham) and protein G Sepharose (Amersham) was added to the lysate/antibody mixture for immunoprecipitation for 1 hour. The resulting outputs were washed with lysis buffer and subjected to western blot analysis. For western blotting, samples were analyzed using antibodies against active-β-Catenin (anti-ABC, Millipore), phospho-β-Catenin (Ser33/37/Thr41, Cell Signaling), β-Catenin (sc-1496, Santa Cruz Biotechnology) and Gapdh (Santa Cruz Biotechnology).\n(§2) FIGS. 5A-I. γ-Secretase Inhibitors (GSIs) Suppress Expansion of Human Colon Cancer Cells by Blocking Notch Cleavage (A) Western analysis of active β-Catenin in SW480 colon cancer cells transfected with control or siRNA against Notch1-4 (100 nM each). (B) Relative β-Catenin/TCF activity of SW480 cells treated with increasing doses of DAPT for 96 h. […] Notch/RBP-J activity was measured by transfecting cells with a luciferase reporter downstream of multiple RBP-J sites. […]"}, "[4]": {"tested_on": "β-Catenin in SW480 cells", "assay": "Western analysis of β-Catenin in SW480 cells", "type": "cell-based, human", "description": "as §1\nFIGS. 5A-I. γ-Secretase Inhibitors (GSIs) Suppress Expansion of Human Colon Cancer Cells by Blocking Notch Cleavage (A) Western analysis of active β-Catenin in SW480 colon cancer cells transfected with control or siRNA against Notch1-4 (100 nM each). (B) Relative β-Catenin/TCF activity of SW480 cells treated with increasing doses of DAPT for 96 h. (C) Western analysis of β-Catenin levels in SW480 and a second colon cancer cell line, HT-29, treated with increasing doses (0, 25, 50 or 100 μM) of DAPT for 96 h. (D) Relative number of SW480 cells treated with DAPT (50 or 100 μM) for 72 h. (E) Western analysis of active β-Catenin levels in SW480 cells with increasing DAPT in the presence or absence of proteasome inhibitor (PI) MG-132 (5 nM) for 72 h. […] (F) Notch/RBP-J activity of SW480 cells treated with increasing doses of Ibuprofen. Notch/RBP-J activity was measured by transfecting cells with a luciferase reporter downstream of multiple RBP-J sites. (G) Relative β-Catenin/TCF activity of SW480 cells treated with Ibuprofen for 72 h. (H) Western analysis of active β-Catenin in SW480 cells treated with Ibuprofen for 72 h. (I) Western analysis of active β-Catenin in SW480 cells transfected with Notch1-4 (100 nM each) siRNA and treated with or without ibuprofen. Gapdh antibody was used as a loading control. All luciferase values were normalized to Renilla activity and represent n=4. *, P<0.01. Con, control; N1-4 KD, Notch 1-4 siRNA."}, "[5]": {"tested_on": "hESCs, NSCs and bone marrow mesenchymal stem cells", "assay": "β-Catenin activity and protein in other stem cells", "type": "cell-based", "details": "increasing doses of DAPT, 72-96 h", "excerpt": "(§3) FIGS. 3A-I. Membrane-Bound Notch Negatively Regulates Active β-Catenin Levels in Stem Cells (A) Schematic representation of wildtype Notch1 and cleavage site-mutated tethered forms of Notch1 (V1744K and V1774L). […] (C) BIO-treated ESCs transfected with WT or mutant Notch1 constructs and, immunoprecipitated (IP) with anti-Myc antibody and immunoblotted (IB) with β-Catenin antibody. Notch1 expression was detected with anti-Myc antibody. Arrowheads indicate cleaved Notch1. (D) Western analysis of active β-Catenin in ESCs transfected with WT or mutant Notch1 constructs. (E) Relative β-Catenin/TCF activity of ESCs and NSCs treated with increasing doses of DAPT for 72-96 h. (F) Western analysis of active β-Catenin in ESCs, NSCs, and bone marrow mesenchymal stem cells (MSCs) treated with increasing doses (0, 25, 50 or 100 μM) of DAPT for 72-96 h. (G) Relative number of ESCs after treatment with DAPT (50 or 100 μM) for 48 h. (H) Relative expression of Cyclin D1 mRNA in ESCs transfected with control (LacZ) or tethered Notch (V1774L) and cultured for 72 h. (I) Relative expression of Brachyury, Nestin and Sox17 mRNA in ESCs maintained without LIF for 72 h after transfection with control (LacZ) or tethered Notch (V1774L); *, P<0.01; NS, not significant. […] Con, control."}, "[6]": {"tested_on": "β-Catenin/TCF activity in SW480 cells", "assay": "β-Catenin/TCF luciferase activity in SW480 cells", "type": "cell-based, human", "description": "(§4) For Notch, RBP-J or Numb/Numbl knockdown experiments, Notch1-4, RBPSUH or Numb/Numbl On-TARGETplus SMARTpool (Dharmacon L-041110, L-044202, L-047867, L-046498, L-007772 or L-046935/L-046983) or Block-iT Alexa Fluor Red (46-5, 318, Invitrogen) was used at concentrations of 50, 100, or 200 nM for cell transfection. Tethered and truncated forms of Notch1 constructs were kindly provided by Drs. R. Kopan (Washington University, St. Louis, Mo.) and M. Nakafuku (Cincinnati Children's Hospital, Cincinnati, Ohio), respectively. Cells were transfected with Lipofectamine LTX (Invitrogen) or Lipofectamine 2000 (Invitrogen) in single-cell suspensions. For gene expression analysis, qPCR was performed with the ABI Prism system (7900HT, Applied Biosystems) with the following primers: β-Catenin (Mm01350394_m1), Cyclin D1 (Mm00432359_m1), Gapdh (Mm99999915_g1). All samples were run at least in triplicate. Real-time quantitative PCR data were normalized and standardized with SDS2.2 software. […]\nas §2, with “each).” for “each). (B) Relative β-Catenin/TCF activity of SW480 cells treated with increasing doses of DAPT for 96 h.”"}, "[7]": {"tested_on": "β-Catenin/TCF activity in ESCs", "assay": "β-Catenin/TCF-directed luciferase reporter (Topflash) in ESCs", "type": "cell-based", "details": "increasing doses of DAPT, 72-96 h", "description": "as §4, with “For gene expression analysis, qPCR was performed with the ABI Prism system (7900HT, Applied Biosystems) with the following primers: β-Catenin (Mm01350394_m1), Cyclin D1 (Mm00432359_m1), Gapdh (Mm99999915_g1). All samples were run at least in triplicate.” left out\nFIGS. 1A-F. Notch Negatively Regulates Active β-Catenin in Stem Cells Independently of RBP-J (A) Western analysis of ESCs transfected with control or Notch1 (N1) siRNA (50 or 100 nM) with active β-Catenin (Act β-Cat) antibody that detects N-terminal-dephosphorylated β-Catenin. (B and C) Relative β-Catenin/TCF-directed luciferase activity in ESCs (B) or neural stem cells (NSCs) (C) transfected with control siRNA or siRNA against Notch1 or Notch1-4. β-Catenin/TCF activity was measured by co-transfecting cells with a luciferase reporter downstream of multiple TCF binding sites (Topflash). […]"}, "[8]": {"tested_on": "ESCs", "assay": "Relative number of ESCs after treatment", "type": "cell-based", "details": "DAPT 50 or 100 μM, 48 h", "excerpt": "as §3"}, "[9]": {"tested_on": "Notch/RBP-J activity in SW480 cells", "assay": "Notch/RBP-J-dependent luciferase activity in SW480 cells", "type": "cell-based, human", "details": "SW480, increasing doses of Ibuprofen", "description": "as §4\nas §2, with “each).” for “each). (B) Relative β-Catenin/TCF activity of SW480 cells treated with increasing doses of DAPT for 96 h.”"}}, "note": "Peptide text beside a SMILES is read from it. * marks the point of attachment. Cbz = O=C(OCc1ccccc1)*"}
{"compound": "O=C1Nc2cc(Br)ccc2/C1=C1/Nc2ccccc2/C1=N\\O", "note": "[BIO, 6-bromoindirubin-3′-oxime]", "values": [{"measurement": "active β-Catenin levels", "setting": "[1]; BIO 2 μM", "value": "greatly increases"}]}
{"compound": "C[C@H](NC(=O)Cc1cc(F)cc(F)c1)C(=O)N[C@H](C(=O)OC(C)(C)C)c1ccccc1", "note": "[DAPT, N—[N-(3,5-difluorophenacetyl)-L-alanyl]-S-phenylglycine t-butyl ester]", "values": [{"measurement": "cell expansion (relative cell number)", "setting": "[2]", "value": "dose-dependent decrease"}, {"measurement": "β-Catenin protein", "setting": "[3]", "value": "dose-dependent decrease"}, {"measurement": "β-Catenin protein", "setting": "[4]; SW480, DAPT 0, 25, 50 or 100 μM, 96 h", "value": "dose-dependent decrease"}, {"measurement": "active β-Catenin activity and protein levels", "setting": "[5]", "value": "trend was also observed"}, {"measurement": "active β-Catenin protein levels", "setting": "[1]; DAPT 0, 25, 50 or 100 μM, 72-96 h", "value": "significant reduction"}, {"measurement": "TCF/β-Catenin-dependent transcriptional activity", "setting": "[6]; SW480 (FIG. 5B), increasing doses of DAPT, 96 h, text names SW480 and HT-29", "value": "dose-dependent decrease"}, {"measurement": "active β-Catenin activity (relative β-Catenin/TCF activity)", "setting": "[7]", "value": "significant reduction"}, {"measurement": "cell numbers", "setting": "[8]", "value": "significant decrease"}]}
{"compound": "CC(C)Cc1ccc(C(C)C(=O)O)cc1", "note": "(centres unmarked) [Ibuprofen]", "values": [{"measurement": "active β-Catenin protein", "setting": "[4]; SW480, Ibuprofen, 72 h", "value": "lowered"}, {"measurement": "reduction of β-Catenin protein levels after knockdown of Notch1-4", "setting": "[4]; SW480 transfected with Notch1-4 siRNA (100 nM each), with or without ibuprofen", "value": "not observed"}, {"measurement": "active β-Catenin transcriptional activity", "setting": "[6]; SW480, Ibuprofen, 72 h", "value": "lowered"}, {"measurement": "canonical Notch transcriptional activity (Notch/RBP-J-dependent luciferase activity)", "setting": "[9]", "value": "dose-dependent decrease"}]}
{"compound": "CC(C)C[C@@H](C=O)NC(=O)[C@H](CC(C)C)NC(=O)[C@H](CC(C)C)NC(=O)OCc1ccccc1", "note": "[MG-132] (Cbz-Leu-Leu-Leu-aldehyde)", "values": [{"measurement": "active β-Catenin levels", "setting": "[4]; SW480, proteasome inhibitor MG-132 (5 nM), 72 h", "value": "higher levels of β-Catenin"}]}
